In assay [1] the test system is RT112/84 cells (FGFR3-fusion). Briefly: RT112/84 cancer cell line cell viability assay (CellTiter-Glo 2.0). The assay is classed as cell-based. The conditions noted are these: Homo sapiens, 72 hours, Cell Titer Glo 2.0. In a few lines: (§1)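 RT112/84, UM-UC-14 and KG-1 cells (10,000/well, RPMI1640 with 10% FBS) were treated with a 9-dose, 10-fold series starting at 30 μM, in triplicate, for 72 h at 37 °C. ATP was read by CellTiter-Glo 2.0 luminescence relative to DMSO controls, and IC50 was fitted with a 4-parameter sigmoidal model.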

In another assay the target is FGFR1-BCR Ba/F3 cells (Homo sapiens, UniProt P11362). Briefly: Ba/F3 cell viability assay (CellTiter-Glo 2.0), FGFR1-BCR Ba/F3. It is filed as cell-based. Conditions: read-out: Ba/F3 Cells FGFR1 (IC50 nM), 48 hours, Cell Titer Glo 2.0. In a few lines:
(§2)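 IL3-independent Ba/F3 lines driven by FGFR1-BCR or FGFR3-BAIAP2L1 fusions, in RPMI1640/10% FBS. 9-dose 10-fold series from 30 μM, triplicate, 48 h at 37 °C; viability by CellTiter-Glo 2.0 ATP luminescence relative to DMSO control, IC50 from 4-parameter sigmoidal fit.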
In general terms: In ATP-based viability assays light output follows the ATP content of the culture.

Assay [2] relates to UM-UC-14 cells (FGFR3(S249C)). Briefly: UM-UC-14 cancer cell line cell viability assay (CellTiter-Glo 2.0). The assay is classed as cell-based. The conditions noted are these: UMUC14, 72 hours, Cell Titer Glo 2.0. In a few lines: as §1
The test system of assay [3] is KG-1 cells (FGFR1-fusion). The assay can be described thus: KG-1 cancer cell line cell viability assay (CellTiter-Glo 2.0). Conditions: Homo sapiens, 72 hours, Cell Titer Glo 2.0. It is filed as cell-based. The essentials:
as §1

In assay [4] the target is FGFR3-BAIAP2L1 Ba/F3 cells (Homo sapiens, UniProt P22607). The assay can be described thus: Ba/F3 cell viability assay (CellTiter-Glo 2.0), FGFR3-BAIAP2L1 Ba/F3. It is filed as cell-based. The conditions noted are these: for Ba/F3 FGFR1/FGFR3 Selectivity: FGFR3 > FGFR1 selectivity ratio in Ba/F3 FGFR fusion cell based assays; for IC50: read-out: Ba/F3 Cells FGFR3 (IC50 nM), FGFR3-BAIAP2L1 Ba/F3 cells, 48 hours, Cell Titer Glo 2.0. In a few lines:
as §2

For another assay, the target named is FGFR3 (V555M) (Homo sapiens (Human), UniProt P22607, V555M). The assay can be described thus: Kinase assay, binding constants (Kd), kinase-tagged T7 phage, qPCR. Conditions: V555M mutant. In a few lines: (§3)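 Competition binding: T7 phage-tagged kinase + biotin-ligand beads + compound (11 pts, 3-fold, 0.9% DMSO). Elution 30 min RT with free ligand; qPCR quantitation. Kd via Hill fit, slope −1.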
FGFR3 (V555M), sequence (P22607 23-806 V555M): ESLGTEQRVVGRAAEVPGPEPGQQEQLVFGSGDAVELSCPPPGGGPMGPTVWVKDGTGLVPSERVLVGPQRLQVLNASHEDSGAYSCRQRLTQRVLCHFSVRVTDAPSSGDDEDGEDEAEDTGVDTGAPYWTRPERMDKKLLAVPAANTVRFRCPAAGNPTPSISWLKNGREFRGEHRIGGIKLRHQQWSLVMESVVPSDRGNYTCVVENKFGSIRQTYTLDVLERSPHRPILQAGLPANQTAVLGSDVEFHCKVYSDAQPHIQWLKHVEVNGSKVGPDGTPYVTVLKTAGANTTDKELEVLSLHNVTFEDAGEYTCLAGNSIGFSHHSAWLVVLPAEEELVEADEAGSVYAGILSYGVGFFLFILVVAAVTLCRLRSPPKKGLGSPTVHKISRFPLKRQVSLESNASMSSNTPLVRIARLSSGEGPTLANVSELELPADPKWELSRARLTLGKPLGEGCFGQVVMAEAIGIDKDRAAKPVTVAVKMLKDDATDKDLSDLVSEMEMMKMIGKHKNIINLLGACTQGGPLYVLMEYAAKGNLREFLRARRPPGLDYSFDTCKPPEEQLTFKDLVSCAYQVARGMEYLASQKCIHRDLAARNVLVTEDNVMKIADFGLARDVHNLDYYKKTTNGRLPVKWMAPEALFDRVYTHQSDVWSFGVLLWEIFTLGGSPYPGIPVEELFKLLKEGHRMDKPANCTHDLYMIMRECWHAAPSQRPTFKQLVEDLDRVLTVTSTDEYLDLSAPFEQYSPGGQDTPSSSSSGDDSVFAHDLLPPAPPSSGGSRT
A general note: In qPCR the cycle at which signal appears reflects the starting amount.

Another assay deals with FGFR2 (Homo sapiens (Human), UniProt P21802). The assay is described as above. In a few lines: as §3
FGFR2, sequence (P21802 22-821): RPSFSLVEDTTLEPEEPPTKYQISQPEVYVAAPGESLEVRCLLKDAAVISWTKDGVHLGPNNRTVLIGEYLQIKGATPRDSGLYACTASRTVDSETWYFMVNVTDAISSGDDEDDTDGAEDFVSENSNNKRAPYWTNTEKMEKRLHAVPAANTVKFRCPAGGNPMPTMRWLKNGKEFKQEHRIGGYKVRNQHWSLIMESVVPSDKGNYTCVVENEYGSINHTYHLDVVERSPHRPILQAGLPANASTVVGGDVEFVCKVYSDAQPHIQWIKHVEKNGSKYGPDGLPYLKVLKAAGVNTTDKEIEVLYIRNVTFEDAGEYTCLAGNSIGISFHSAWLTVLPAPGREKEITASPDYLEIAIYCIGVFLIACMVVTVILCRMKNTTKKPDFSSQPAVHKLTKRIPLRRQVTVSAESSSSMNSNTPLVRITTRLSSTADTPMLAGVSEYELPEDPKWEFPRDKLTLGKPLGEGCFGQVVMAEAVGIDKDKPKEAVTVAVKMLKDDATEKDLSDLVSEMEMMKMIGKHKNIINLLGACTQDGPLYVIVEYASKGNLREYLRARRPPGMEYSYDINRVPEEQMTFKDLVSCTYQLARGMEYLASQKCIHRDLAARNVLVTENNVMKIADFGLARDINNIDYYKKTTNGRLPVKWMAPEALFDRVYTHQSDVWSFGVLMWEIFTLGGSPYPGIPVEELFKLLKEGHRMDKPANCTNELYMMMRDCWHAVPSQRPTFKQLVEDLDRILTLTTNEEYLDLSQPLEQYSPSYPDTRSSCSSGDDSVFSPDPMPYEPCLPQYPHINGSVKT
A further assay addresses FGFR4 (Homo sapiens (Human), UniProt P22455). The assay is described as above. The essentials: as §3
For the next assay, the target named is FGFR3 (Homo sapiens (Human), UniProt P22607). The description is as above. The essentials:
as §3

For another assay, the target named is FGFR1 (Homo sapiens (Human), UniProt P11362). Described as above. In a few lines:
as §3

FGFR1, sequence (P11362 22-822): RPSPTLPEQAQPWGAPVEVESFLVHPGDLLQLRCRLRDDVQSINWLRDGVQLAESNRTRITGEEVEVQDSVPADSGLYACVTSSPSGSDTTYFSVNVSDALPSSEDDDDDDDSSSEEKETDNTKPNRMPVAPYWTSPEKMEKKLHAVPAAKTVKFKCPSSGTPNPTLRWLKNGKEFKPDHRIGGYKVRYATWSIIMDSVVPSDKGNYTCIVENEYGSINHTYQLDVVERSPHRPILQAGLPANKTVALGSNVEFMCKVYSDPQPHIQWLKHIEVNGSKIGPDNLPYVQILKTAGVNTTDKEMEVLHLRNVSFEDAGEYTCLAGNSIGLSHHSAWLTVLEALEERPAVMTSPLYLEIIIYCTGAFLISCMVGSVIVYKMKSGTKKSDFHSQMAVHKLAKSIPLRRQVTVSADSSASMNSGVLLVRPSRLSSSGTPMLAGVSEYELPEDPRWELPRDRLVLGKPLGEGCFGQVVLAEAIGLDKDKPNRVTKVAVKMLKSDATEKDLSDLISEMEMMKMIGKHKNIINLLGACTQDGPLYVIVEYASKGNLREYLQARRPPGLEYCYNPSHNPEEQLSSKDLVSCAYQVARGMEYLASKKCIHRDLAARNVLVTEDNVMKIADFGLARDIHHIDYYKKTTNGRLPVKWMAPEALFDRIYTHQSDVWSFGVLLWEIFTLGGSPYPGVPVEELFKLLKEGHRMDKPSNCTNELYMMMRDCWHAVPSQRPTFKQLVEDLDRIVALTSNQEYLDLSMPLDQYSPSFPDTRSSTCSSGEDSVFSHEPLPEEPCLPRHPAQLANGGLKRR
FGFR1-BCR Ba/F3 cells, sequence (P11362 22-822 limits assumed, change not shown): as the sequence (P11362 22-822) above
FGFR4, sequence (P22455 22-802): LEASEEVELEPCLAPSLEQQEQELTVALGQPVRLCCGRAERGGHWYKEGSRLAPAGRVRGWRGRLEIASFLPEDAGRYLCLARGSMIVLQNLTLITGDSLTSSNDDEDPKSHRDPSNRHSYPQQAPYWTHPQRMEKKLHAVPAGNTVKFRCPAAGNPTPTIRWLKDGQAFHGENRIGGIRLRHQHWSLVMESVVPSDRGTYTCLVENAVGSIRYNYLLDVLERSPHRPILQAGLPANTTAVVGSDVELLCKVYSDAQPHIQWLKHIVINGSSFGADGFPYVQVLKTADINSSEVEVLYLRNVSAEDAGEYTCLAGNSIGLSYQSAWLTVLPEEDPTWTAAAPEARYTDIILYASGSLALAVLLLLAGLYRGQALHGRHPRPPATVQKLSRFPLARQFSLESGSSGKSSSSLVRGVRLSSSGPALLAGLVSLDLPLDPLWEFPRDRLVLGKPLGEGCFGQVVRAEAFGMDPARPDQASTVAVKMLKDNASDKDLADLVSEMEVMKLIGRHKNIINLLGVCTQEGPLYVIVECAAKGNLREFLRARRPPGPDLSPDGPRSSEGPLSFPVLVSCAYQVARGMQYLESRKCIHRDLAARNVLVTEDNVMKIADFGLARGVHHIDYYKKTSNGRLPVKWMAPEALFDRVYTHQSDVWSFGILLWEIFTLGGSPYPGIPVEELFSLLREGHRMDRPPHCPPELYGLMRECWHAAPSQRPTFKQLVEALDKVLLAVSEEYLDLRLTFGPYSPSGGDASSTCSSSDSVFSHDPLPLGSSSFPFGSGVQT
FGFR3-BAIAP2L1 Ba/F3 cells, sequence (P22607 23-806 limits assumed, change not shown): as the sequence (P22607 23-806 V555M) above, with M533V counted along it
FGFR3, sequence (P22607 23-806): as the sequence (P22607 23-806 V555M) above, with M533V counted along it

In general, Kd refers to the concentration at which binding is half-saturated. For the compound `C[C@@H](Oc1ccc2[nH]nc(-c3ccc(N4CCC5(CCCO5)CC4)nc3)c2c1)c1c(Cl)cncc1Cl` [Example 26, 8-[5-[5-[(1R)-1-(3,5-dichloro-4-pyridyl)ethoxy]-1H-indazol-3-yl]-2-pyridyl]-1-oxa-8-azaspiro[4.5]decane], the IC50 in assay [1] is 20 to 100 nM; at FGFR1-BCR Ba/F3 cells, greater than 300 nM; in assay [2] it was 20 to 100 nM; in assay [3], greater than 300 nM; in assay [4], 20 to 100 nM. The “Ba/F3 FGFR1/FGFR3 Selectivity” value in assay [4] was found to be 28. In addition, the Kd lay in the range of 1 to 20 nM on FGFR3 (V555M); 20 to 100 nM on FGFR2; 1 to 20 nM at FGFR4; 1 to 20 nM at FGFR3; 20 to 100 nM on FGFR1.

Consider `C[C@@H](Oc1ccc2[nH]nc(-c3ccc(N4CCC5(CCNC5=O)CC4)nc3)c2c1)c1c(Cl)cncc1Cl` [Example 27, 8-[5-[5-[(1R)-1-(3,5-dichloro-4-pyridyl)ethoxy]-1H-indazol-3-yl]-2-pyridyl]-2,8-diazaspiro[4.5]decan-1-one], for which the IC50 was 1 to 20 nM in assay [1]; 100 to 300 nM at FGFR1-BCR Ba/F3 cells; 1 to 20 nM in assay [2]; 100 to 300 nM in assay [3]; 1 to 20 nM in assay [4]. In addition, the “Ba/F3 FGFR1/FGFR3 Selectivity” value in assay [4] came out at 24. Further, the equilibrium dissociation constant (Kd) on FGFR3 (V555M) was 1 to 20 nM; at FGFR2 it was 1 to 20 nM; at FGFR4, 1 to 20 nM; on FGFR3, 1 to 20 nM; on FGFR1, 20 to 100 nM.

As to `C[C@@H](Oc1ccc2[nH]nc(-c3ccc(N4CCC5(CCOC5)CC4)nc3)c2c1)c1c(Cl)cncc1Cl` [Example 28, 8-[5-[5-[(1R)-1-(3,5-dichloro-4-pyridyl)ethoxy]-1H-indazol-3-yl]-2-pyridyl]-2-oxa-8-azaspiro[4.5]decane], the IC50 is 1 to 20 nM in [1]; greater than 300 nM at FGFR1-BCR Ba/F3 cells; 1 to 20 nM in assay [2]; 100 to 300 nM in [3]; 1 to 20 nM in assay [4]. Besides, in assay [4], the “Ba/F3 FGFR1/FGFR3 Selectivity” value amounted to 22. Moreover, the Kd on FGFR3 (V555M) lay within 1 to 20 nM; on FGFR2 it was 20 to 100 nM; at FGFR4, 1 to 20 nM; at FGFR3 it was 1 to 20 nM; at FGFR1 it was 20 to 100 nM.

As to `C[C@@H](Oc1ccc2[nH]nc(-c3ccc(N4CCC5(CCN(C)C5)CC4)nc3)c2c1)c1c(Cl)cncc1Cl` [Example 32, 8-[5-[5-[(1R)-1-(3,5-dichloro-4-pyridyl)ethoxy]-1H-indazol-3-yl]-2-pyridyl]-2-methyl-2,8-diazaspiro[4.5]decane], the IC50 in assay [1] was in the range of 1 to 20 nM; on FGFR1-BCR Ba/F3 cells, 100 to 300 nM; in assay [2], 1 to 20 nM; in [3] it was 20 to 100 nM; in assay [4], 1 to 20 nM. Besides, the “Ba/F3 FGFR1/FGFR3 Selectivity” value in assay [4] is given as 12. Further, the Kd on FGFR3 (V555M), at FGFR2, at FGFR4, on FGFR3 and at FGFR1 was 1 to 20 nM throughout.

Take `C[C@@H](Oc1ccc2[nH]nc(-c3ccc(N4CCC5(CCCN5C)CC4)nc3)c2c1)c1c(Cl)cncc1Cl` [Example 33, 8-[5-[5-[(1R)-1-(3,5-dichloro-4-pyridyl)ethoxy]-1H-indazol-3-yl]-2-pyridyl]-1-methyl-1,8-diazaspiro[4.5]decane]: the IC50 in assay [1] was 1 to 20 nM; at FGFR1-BCR Ba/F3 cells, 20 to 100 nM; in assay [2], 1 to 20 nM; in assay [3], 20 to 100 nM; in assay [4] it was 1 to 20 nM. The “Ba/F3 FGFR1/FGFR3 Selectivity” value in [4] was found to be 16. The dissociation constant (Kd) on FGFR3 (V555M), on FGFR2, at FGFR4, on FGFR3 and on FGFR1 was 1 to 20 nM each time.

With `C[C@@H](Oc1ccc2[nH]nc(-c3ccc(N4CCC5(CC4)C(=O)NCCN5C)nc3)c2c1)c1c(Cl)cncc1Cl` [Example 34, 9-[5-[5-[(1R)-1-(3,5-dichloro-4-pyridyl)ethoxy]-1H-indazol-3-yl]-2-pyridyl]-1-methyl-1,4,9-triazaspiro[5.5]undecan-5-one], the IC50 in assay [1] was in the range of 1 to 20 nM; at FGFR1-BCR Ba/F3 cells it was 20 to 100 nM; in [2] it was 1 to 20 nM; in assay [3], 20 to 100 nM; in assay [4], 1 to 20 nM. The “Ba/F3 FGFR1/FGFR3 Selectivity” value in [4] came out at 28. Further, the Kd at FGFR3 (V555M), at FGFR2, on FGFR4, at FGFR3 and on FGFR1 was 1 to 20 nM throughout.

Take `C[C@@H](Oc1ccc2[nH]nc(-c3ccc(N4CC5(C4)CN(S(C)(=O)=O)C5)nc3)c2c1)c1c(Cl)cncc1Cl` [Example 46, 5-[(1R)-1-(3,5-dichloro-4-pyridyl)ethoxy]-3-[6-(2-methylsulfonyl-2,6-diazaspiro[3.3]heptan-6-yl)-3-pyridyl]-1H-indazole]: the IC50 in [1] lay within 1 to 20 nM; on FGFR1-BCR Ba/F3 cells, 20 to 100 nM; in assay [2], 1 to 20 nM; in [3] it was 20 to 100 nM; in assay [4], 1 to 20 nM. Moreover, the “Ba/F3 FGFR1/FGFR3 Selectivity” value in [4] is 14. Besides, the equilibrium dissociation constant (Kd) on FGFR3 (V555M), on FGFR2, at FGFR4, on FGFR3 and on FGFR1 was 1 to 20 nM in each case.

With `C[C@@H](Oc1ccc2[nH]nc(-c3ccc(N4CC5(CN(C(=O)N(C)C)C5)C4)nc3)c2c1)c1c(Cl)cncc1Cl` [Example 47, 6-[5-[5-[(1R)-1-(3,5-dichloro-4-pyridyl)ethoxy]-1H-indazol-3-yl]-2-pyridyl]-N,N-dimethyl-2,6-diazaspiro[3.3]heptane-2-carboxamide], the IC50 in assay [1] was in the range of 1 to 20 nM; at FGFR1-BCR Ba/F3 cells, 100 to 300 nM; in assay [2], 1 to 20 nM; in assay [3], 100 to 300 nM; in assay [4] it was 1 to 20 nM. For the same compound, in assay [4], the “Ba/F3 FGFR1/FGFR3 Selectivity” value was 21. The Kd on FGFR3 (V555M), on FGFR2, on FGFR4, at FGFR3 and at FGFR1 was 1 to 20 nM in each case.

In the case of `C[C@@H](Oc1ccc2[nH]nc(-c3cnc(N4CCC5(CCC(=O)N5)CC4)nc3)c2c1)c1c(Cl)cncc1Cl` [Example 48, 8-[5-[5-[(1R)-1-(3,5-dichloro-4-pyridyl)ethoxy]-1H-indazol-3-yl]pyrimidin-2-yl]-1,8-diazaspiro[4.5]decan-2-one], the IC50 was in the range of 20 to 100 nM in [1]; 100 to 300 nM at FGFR1-BCR Ba/F3 cells; 20 to 100 nM in [2]; 100 to 300 nM in [3]; 20 to 100 nM in assay [4]. Besides, in assay [4], the “Ba/F3 FGFR1/FGFR3 Selectivity” value was 8. For the same compound, the Kd on FGFR3 (V555M) lay within 1 to 20 nM; at FGFR2, 20 to 100 nM; at FGFR4, 1 to 20 nM; at FGFR3 it was 1 to 20 nM; on FGFR1, 20 to 100 nM.

Consider `C[C@@H](Oc1ccc2[nH]nc(-c3cnc(N4CCC5(CC4)CNC(=O)C5)nc3)c2c1)c1c(Cl)cncc1Cl` [Example 49, 8-[5-[5-[(1R)-1-(3,5-dichloro-4-pyridyl)ethoxy]-1H-indazol-3-yl]pyrimidin-2-yl]-2,8-diazaspiro[4.5]decan-3-one], for which the IC50 fell in the range of 20 to 100 nM in assay [1]; 100 to 300 nM on FGFR1-BCR Ba/F3 cells; 20 to 100 nM in assay [2]; 100 to 300 nM in [3]; 1 to 20 nM in assay [4]. Besides, the “Ba/F3 FGFR1/FGFR3 Selectivity” value in assay [4] stood at 10. Also, the dissociation constant Kd on FGFR3 (V555M) was in the range of 1 to 20 nM; at FGFR2 it was 20 to 100 nM; at FGFR4 it was 1 to 20 nM; at FGFR3, 1 to 20 nM; at FGFR1, 20 to 100 nM.

`C[C@@H](Oc1ccc2[nH]nc(-c3cnc(N4CCC5(CCN(C)C5=O)CC4)nc3)c2c1)c1c(Cl)cncc1Cl` [Example 51, 8-[5-[5-[(1R)-1-(3,5-dichloro-4-pyridyl)ethoxy]-1H-indazol-3-yl]pyrimidin-2-yl]-2-methyl-2,8-diazaspiro[4.5]decan-1-one]: the IC50 lay within 20 to 100 nM in assay [1]; 100 to 300 nM at FGFR1-BCR Ba/F3 cells; 20 to 100 nM in assay [2]; 100 to 300 nM in assay [3]; 20 to 100 nM in assay [4]. Further, the “Ba/F3 FGFR1/FGFR3 Selectivity” value in assay [4] worked out at 7. Besides, the Kd was in the range of 1 to 20 nM at FGFR3 (V555M); 20 to 100 nM on FGFR2; 1 to 20 nM on FGFR4; 1 to 20 nM at FGFR3; 20 to 100 nM on FGFR1.

Source of the values: US20240109865A1, “INDAZOLE COMPOUNDS AS KINASE INHIBITORS” (TYRA BIOSCIENCES, INC., priority 2020, published 2024).
